This assay deals with NHP oocytes (SCC-intact) and rhesus enucleated cytoplasts. The assay is described as follows: Taxol-induced microtubule recruitment; immunocytochemistry of HSET, NuMA, microtubules and DNA. In kind it is cell-based, rhesus (nonhuman primate). Particulars: 10 μM paclitaxel. From the text:
FIGS. 9A-9C show microtubule patterns (green) observed in rhesus cytoplast after enucleation (FIG. 9A) or following artificial activation at 24 (FIG. 9B) or at 48 hrs (FIG. 9C) post-ionomycin/DMAP. Following enucleation, no assembled cytoplasmic microtubules (FIG. 9A: green) are observed. After activation, abundant disarrayed microtubules (FIG. 9B: green) assemble in the DNA-less cytoplast. Rarely, a microtubule structure resembling a bipolar spindle (FIG. 9C: green) assembles in the cytoplasm. The insets of FIGS. 9A-9C show DNA imaging confirming successful removal of the SCC. […] Second meiotic chromosomes, are blue. FIGS. 9H-9J show a rhesus enucleated cytoplast treated for 30 minutes with 10 μM paclitaxel prior to fixation and detection of DNA (H, blue), microtubules (I, red), and HSET (J, green). The assembled cytoplasmic microtubule bundles are not labeled by HSET antibody. FIGS. 9A-9C and 9E are double-labeled images for microtubules (green) and DNA (blue). FIGS. 9D, 9F, and 9G are triple-labeled images for HSET (green), microtubules (red) and DNA (blue). FIGS. 9H-9J are single-labeled images for DNA (blue), microtubules (red), and HSET (green). Bars represent 10 μm.
FIGS. 10D and 10E show NuMA detection in the somatic cell nuclei of cumulus (FIG. 10D: green) and rhesus fibroblast cells (FIG. 10E: green; red, microtubules). […] NuMA (green) is strongly detected in the decondensed male pronucleus (MPn), but diminished in the unsuccessful fibroblast cell (arrowhead) attached at the oocyte surface. In the upper inset of FIG. 10F, red depicts microtubules while blue depicts DNA. In the lower inset of FIG. 10F, the sperm centrosome organizes a microtubule astral array (arrow) near the decondensed male pronucleus. […] NuMA (green) is found at both poles on the intact metaphase-II spindle (red) with aligned chromosomes (blue) as well as at the base of the condensed sperm head (blue, arrow). However, NuMA (green) is missing from the disorganized multipolar NT spindle microtubules (red) assembling around the scattered somatic cell chromosomes (blue). […] NuMA (green) is detected at the poles in both the NT spindle (lower arrow; red, microtubules; blue, DNA) and the intact second meiotic metaphase spindle (upper arrow; red, microtubules; blue, DNA). […]
Imaging. […] NuMA, HSET (human spleen embryonic tissue and testis), and Eg5 were detected using rabbit polyclonal antibodies as described in Mountain, 147 J. CELL BIOL. […] Primary antibodies were detected using Alexa secondary antibodies (Alexa-546 goat anti-mouse IgG; Alexa-488 goat anti-rabbit IgG; Molecular Probes, Eugene, Oreg.). […] DNA was fluorescently detected with 10 μg/ml Hoechst 33342 (Sigma) and 1 μM Toto-3 (Molecular Probes) added to the penultimate rinse. […]

Consider `CC(=O)O[C@H]1C(=O)[C@@]2(C)[C@H]([C@H](OC(=O)c3ccccc3)[C@]3(O)C[C@H](OC(=O)[C@H](O)[C@@H](NC(=O)c4ccccc4)c4ccccc4)C(C)=C1C3(C)C)[C@]1(OC(C)=O)CO[C@@H]1C[C@@H]2O` [Paclitaxel], for which, under “SCC-intact mature NHP oocyte, 20 minutes (FIG. 10C)”, the NuMA localization entry is “NuMA localization at disorganized spindle poles”. Further, the cytoplasmic microtubule assembly entry (enucleated cytoplast lacking the SCC, 30 minutes (FIG. 9I)) was “numerous cytoplasmic microtubule bundles assembled in the cytoplasm”. Also, under “enucleated cytoplast lacking the SCC, 30 minutes (FIG. 9J)”, the “HSET detection at cytoplasmic microtubule bundles” value is recorded as “without HSET protein detection”. Besides, the HSET protein localization entry (intact mature oocyte, 30 minutes (FIG. 9G)) is given as “enhanced HSET protein only at the second meiotic spindle poles”.

Source of the values: patent publication US20100242125A1, “METHODS FOR CORRECTING MITOTIC SPINDLE DEFECTS AND OPTIMIZING PREIMPLANTATION EMBRYONIC DEVELOPMENTAL RATES ASSOCIATED WITH SOMATIC CELL NUCLEAR TRANSFER IN ANIMALS” (priority 2003, published 2010).
